Results on ten molecules are retold here after patent US10709687B2, “FLT3 receptor inhibitor at low dosage for the treatment of neuropathic pain” (INSTITUT NATIONAL DE LA SANTE ET DE LA RECHERCHE MEDICALE …, priority 2016, dated 2020).

For experiment [1] the following is noted: cited from earlier work.
Experiment [2] relates to nerve injury-induced mechanical pain hypersensitivity. As to the kind of experiment: Spinal Nerve Ligation (SNL) model, paw pressure test. Format: in vivo, rat. The settings on record: for maximal inhibition on the SNL model in rat (dose): Method 1, no experimental details given; for Human Equivalent Dose (HED) from SNL rat dose: allometric FDA factor for the rat 6.2, human body weight 60 kg.
Method: Adult Sprague Dawley rats (300-340 gr) (Janvier LABS, Le Genest Saint-Isle, France) were used according to the guidelines of the International Association for the Study of Pain. Rats were housed in cages with a 12/12 hr light/dark cycle and fed food and water ad libitum. Behavioral responsiveness of the rats was tested following ten days of habituation to the testing environment and the observer. Left side L5 spinal nerve was injured as described by Kim and Chung (1992) Pain 50, 355-363. Anesthesia was induced and maintained with isoflurane. A midline incision was made at the L3-S2 level and the dorsal vertebral column from L4 to S2 was exposed. Part of the L6 transverse process was carefully removed with fine rongeurs. The L5 spinal nerve were isolated and tightly ligated distal to the DRG with a 4-0 silk suture. The wound was closed in two layers using absorbable sutures. A similar procedure was performed for the sham surgery, except that spinal nerve was not isolated and not ligated. After surgery, the posture of the sham-operated and SNL rats was closely monitored before they were used in different experiments.
Mechanical hyperalgesia was measured as the threshold to a noxious mechanical stimulus. Nociceptive thresholds (NT) were determined in handled rats by a modification of the Randall-Selitto method (Kayser et al., Brain Res 1990; 508:329-332). Briefly, a constantly increasing pressure is applied to the rat hind paw until vocalization occurs. A Basile analgesimeter (Apelex, Massy, France; stylus tip diameter, 1 mm) was used. A 600-g cut-off value was determined to prevent tissue damage.
It was administered by oral gavage at different doses in a volume of 1 ml/kg body weight in a solution of dimethylsulfoxide (DMSO) at 3%. Control animals received an equal volume of DMSO 3%.
The data are presented as means±SEM. One-way ANOVA was used to assess individual group comparisons. […] The Newman-Keuls test was used for multiple comparisons between groups.

The subject of experiment [3] is human tumor cells expressing FLT3-ITD (MV4,11). The conditions noted are these: mouse xenograft model; literature references in Table 1; cited from earlier work.
A short description of experiment [4]: Active (recommended or clinically efficacious) dose for treating cancer in patients. Format: in vivo. The settings on record: converted for a human with a body weight of 60 kg; advanced or recurrent head and neck cancers. The source says:
Active doses for FLT3 receptor inhibitor, according to Method 1 as described above, are the recommended doses, as appearing in the drug label when the product is marketed. […] Such information may be found via various sources well known by the person skilled in the art, such as articles, FDA data publications, labeling of marketed products, Summary of Product Characteristics (SmPC) from the European Medicine Agency (EMA), clinical trial descriptions from the US National Institute of Health (available at www.clinicaltrials.gov) and information on the outer product packaging.

Experiment [5] has as its system inflammatory pain (CFA-induced mechanical hypersensitivity). As to the kind of experiment: Complete Freund's Adjuvant (CFA) inflammatory pain model, von Frey mechanical hypersensitivity. The conditions noted are these: CFA mice; sunitinib 5 or 20 mg/kg; measured 1 and 2 days after administration. The experiment is classed as in vivo. As for the experimental part:
Adult mice (8-10 week-old) (Janvier LABS, Le Genest Saint-Isle, France) were used according to the guidelines of the International Association for the Study of Pain. Mice were housed in cages with a 12/12 hr light/dark cycle and fed food and water ad libitum. Behavioral responsiveness of the animals was tested following ten days of habituation to the testing environment and the observer. Before testing, mice were acclimatized for 60 min in the temperature and light-controlled testing room within a plastic cylinder or on wire mesh.
A 0.6 g-von Frey filament was used for measuring punctuate hindpaw mechanical hypersensitivity with the dynamic plantar aesthesiometer (Bioseb, France). Sharp withdrawal of the stimulated hindpaw was considered as a positive response. The procedure was applied 10 times and the percentage of positive responses was calculated. Basal positive responses were recorded twice during two, consecutive days.
Inflammatory pain was produced by local injection of Complete Freund's Adjuvant (CFA), which induces a prolonged swelling that becomes maximal at 24 hrs and persists for at least 7 days (Iadarola et al., Pain. 1988; 35:313-26). […] Mechanical hypersensitivity was measured 4 days later. […]

The target of the next experiment is T1, FLT3 (Mus musculus, UniProt Q00342).
T1 construct: Primary neuronal cultures were established from lumbar (L4 to L6) dorsal root ganglia (DRG) of adult mice; endogenous in cells; host or cells: primary DRG neurons from adult mice
T1 sequence (Q00342 28-1000): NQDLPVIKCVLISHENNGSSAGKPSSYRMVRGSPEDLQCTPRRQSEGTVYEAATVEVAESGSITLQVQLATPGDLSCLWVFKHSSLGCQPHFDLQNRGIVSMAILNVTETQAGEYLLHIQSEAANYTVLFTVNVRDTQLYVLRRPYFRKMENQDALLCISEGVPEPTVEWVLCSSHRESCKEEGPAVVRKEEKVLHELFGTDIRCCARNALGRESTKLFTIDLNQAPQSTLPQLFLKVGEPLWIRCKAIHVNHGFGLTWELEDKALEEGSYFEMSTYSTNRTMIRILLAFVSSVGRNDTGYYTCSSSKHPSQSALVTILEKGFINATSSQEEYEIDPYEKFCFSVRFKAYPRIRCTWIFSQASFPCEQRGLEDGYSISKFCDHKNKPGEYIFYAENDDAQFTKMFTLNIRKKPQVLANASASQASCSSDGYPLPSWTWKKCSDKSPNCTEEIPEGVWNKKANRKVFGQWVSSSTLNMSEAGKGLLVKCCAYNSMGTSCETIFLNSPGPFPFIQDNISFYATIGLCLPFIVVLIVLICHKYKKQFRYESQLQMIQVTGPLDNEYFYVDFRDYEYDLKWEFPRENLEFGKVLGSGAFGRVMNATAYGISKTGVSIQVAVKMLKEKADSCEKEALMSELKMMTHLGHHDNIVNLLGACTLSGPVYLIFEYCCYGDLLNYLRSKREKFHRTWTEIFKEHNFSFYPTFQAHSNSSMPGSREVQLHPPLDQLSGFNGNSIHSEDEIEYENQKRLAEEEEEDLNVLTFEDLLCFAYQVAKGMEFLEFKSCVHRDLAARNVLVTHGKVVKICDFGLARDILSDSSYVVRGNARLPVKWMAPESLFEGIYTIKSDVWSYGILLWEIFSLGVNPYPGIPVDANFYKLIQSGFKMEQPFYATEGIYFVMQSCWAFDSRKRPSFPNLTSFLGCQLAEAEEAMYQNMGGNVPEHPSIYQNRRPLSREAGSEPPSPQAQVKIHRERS
As to the kind of experiment: FL potentiation of capsaicin-induced [Ca2+]i response in DRG neurons primary culture. The settings on record: FL 0.56 nM, capsaicin 0.5 μM. Format: cell-based, mice. On the procedure: Primary neuronal cultures were established from lumbar (L4 to L6) dorsal root ganglia (DRG) of adult mice as previously described (Boudes et al, J. Neurosci. 29, 46, 10060-10068). Ganglia were treated twice with collagenase A (1 mg/ml, Roche Diagnostic, France) for 45 minutes (37° C.) and then with trypsin-EDTA (0.25%, Sigma, St Quentin Fallavier, France) for 30 minutes. They were mechanically dissociated by passing 8 to 10 times through the tip of a fire-polished Pasteur pipette in neurobasal (Life Technologies, Cergy Pontoise, France) culture medium supplemented with 10% foetal bovine serum and DNase (50 U/ml, Sigma, St Quentin Fallavier, France). Isolated cells were collected by centrifugation and suspended in neurobasal culture medium supplemented with 2% B27 (Life Technologies), 2 mM glutamine, penicillin/streptomycin (20 U/ml, 0.2 mg/ml). […]
For intracellular Ca^2+ measurements, DRG neurons were used 18-30 h after plating as described previously. […] A Fura filter cube with 400 long pass dichroic and D510/40m emission band pass was used to collect fluorescence emissions separately for each wavelength. Images were acquired and analyzed with Metafluor software (Molecular Devices). Changes in intracellular calcium concentrations ([Ca^2+]i) were monitored as changes of the ratio of the fura-2-fluorescence intensity recorded at 340 nm and 380 nm excitation wavelengths (ΔF340/380). […]

Experiment [6] deals with human tumor cells expressing FLT3-ITD (MV4,11). As to the kind of experiment: Tumor regression in mouse xenograft model sensitive to FLT3 inhibition. The experiment is classed as in vivo. The conditions noted are these: allometric FDA factor for the mouse 12.3; 60 kg.
From the text: The dose of FLT3 receptor inhibitor that induces tumor regression in animal models can be measured by using a mouse xenograft model, which is sensitive to FLT3 inhibition. Such a model may consist in an athymic immuno-deficient mouse implanted with human tumor cells that express a mutated, spontaneously activated, form of FLT3. […] An example of tumor cells that express FLT3-ITD is the MV4,11 cell line (Lange et al., Blood, 1987, 70:192-199).

Where two headings read alike, the source gives them in different places.

In the case of `COc1cc(Nc2ncc(F)c(Nc3ccc4c(n3)N(COP(=O)(O)O)C(=O)C(C)(C)O4)n2)cc(OC)c1OC` [Fostamatinib], the “Active dose for treating cancer (by cancer type)” value (shortened to “Active dose for treating cancer”) in experiment [1] (twice a day) is listed as 100-200 twice a day.

Regarding `CCc1nc(C(N)=O)c(Nc2ccc(N3CCC(N4CCN(C)CC4)CC3)c(OC)c2)nc1NC1CCOCC1` [Gilteritinib], in experiment [2], the “maximal inhibition on the SNL model in rat (dose)” value worked out at 2 mg/kg and the “Human Equivalent Dose (HED) from SNL rat dose” value is listed as “HED = 19.4 mg”. Also, the “Human Equivalent Dose (HED) from SNL rat dose” value in experiment [2] (listed as gilteritinib) is 19.4 mg.

On to `Nc1ncc(-c2cnn(CCO)c2)c2scc(-c3ccc(NC(=O)Nc4cccc(F)c4)cc3)c12` [Ilorasertib], for which the “Active dose for treating cancer” value in experiment [1] (once weekly, acute myelogenous leukaemia, myelodysplastic syndrome or chronic myelomonocytic leukaemia) is 540 mg once weekly. In addition, the “minimum inhibiting dose inducing maximal tumor regression” value in experiment [3] is given as 20 mg/kg.

Turning to `CO[C@@H]1[C@H](N(C)C(=O)c2ccccc2)C[C@H]2O[C@]1(C)n1c3ccccc3c3c4c(c5c6ccccc6n2c5c31)C(=O)NC4` [Midostaurin], the entries for the “Human Equivalent Dose (HED) from SNL rat dose” value in experiment [2] and in experiment [2] (listed as Midostaurine) were 39 mg and “HED = 39 mg”, respectively.

Consider `C1=C/COCc2cc(ccc2OCCN2CCCC2)Nc2nccc(n2)-c2cccc(c2)COC/1` [Pacritinib], for which the “Active dose for treating cancer” value is 400 in experiment [1] (once daily) and 200 in experiment [1] (twice daily).

As to `CC(C)(C)c1cc(NC(=O)Nc2ccc(-c3cn4c(n3)sc3cc(OCCN5CCOCC5)ccc34)cc2)no1` [Quizartinib], in experiment [2], the “maximal inhibition on the SNL model in rat (dose)” value is listed as 0.77 mg/kg and the “Human Equivalent Dose (HED) from SNL rat dose” value is “HED = 7.5 mg”. Besides, in experiment [2] (listed as quizartinib), the “Human Equivalent Dose (HED) from SNL rat dose” value is given as 7.5 mg.

As for `Cc1cc(C)c(/C=C2\C(=O)Nc3ccccc32)[nH]1` [Semaxinib], the “Active dose for treating cancer” value is given as 145 mg/m^2 in experiment [1] (advanced or recurrent head and neck cancers); 235 mg in experiment [4].

Take `CNC(=O)c1cc(Oc2ccc(NC(=O)Nc3ccc(Cl)c(C(F)(F)F)c3)cc2)ccn1` [Sorafenib]: the “minimum inhibiting dose inducing maximal tumor regression” value in experiment [3] is given as 10 mg/kg.

For the molecule `CCN(CC)CCNC(=O)c1c(C)[nH]c(/C=C2\C(=O)Nc3ccc(F)cc32)c1C` [Sunitinib], the “mechanical hypersensitivity (percentage of withdrawal after mechanical stimulation)” value in experiment [5] was “inactive”. Further, the IC50 – broadly, the concentration needed to halve the response being measured – at FLT3 (non-linear regression, read-out: IC50 for inhibition of FL potentiation of the [Ca2+]i peak response to capsaicin) amounted to 0.7 nM. In experiment [6], the “Human Equivalent Dose (HED) from mouse tumor regression dose” value was 98 mg. In addition, the “inhibiting dose giving 50% of inhibition (ID50) of SNL-induced mechanical hypersensitivity” value in experiment [2] (SNL rats, oral) came to 0.015 mg/kg. In addition, in experiment [2] (SNL rats, oral administration, paw pressure 24 hours after administration), the “minimal dose for maximal inhibition of pain sensitivity” value came to 0.075 mg/kg. Also, the “Human Equivalent Dose (HED) from SNL rat dose” value in experiment [2] is on record as “HED = 0.73 mg”; in experiment [2] (listed as sunitinib), 0.73 mg.

B1: FL: cytokine which is a natural ligand of the FLT3 receptor; from ABCYS SA (protein, UniProt P49771 27-235, looked up)
Fms-related tyrosine kinase 3 …: TQDCSFQHSPISSDFAVKIRELSDYLLQDYPVTVASNLQDEELCGGLWRLVLAQRWMERLKTVAGSKMQGLLERVNTEIHFVTKCAFQPPPSCLRFVQTNISRLLQETSEQLVALKPWITRQNFSRCLELQCQPDSSTLPPPWSPRPLEATAPTAPQPPLLLLLLLPVGLLLLAAAWCLHWQRTRRRTPRPGEQVPPVPSPQDLLLVEH
Regarding B1, the “effect on [Ca2+]i peak response to capsaicin” value with FLT3 is “elicited a potentiation”.
